Patent US7138140B2, “Suplatast tosilate crystals” (Taiho Pharmaceutical Co., Ltd., priority 2001, dated 2006)

Assays:
Type in all cases: physicochemical
[1] = Measurement of an optically active substance ratio (chiral stationary phase column); conditions: p-toluenesulfonate; for Optically active substance ratio ((+)/(−)): crystals, Chiralcel OD-H column; for Optically active substance ratio of the suplatast tosilate in the mother liquor: mother liquor after crystallization
Procedure: [Test 1] Measurement of an Optically Active Substance Ratio
The optically active substance ratio of each of the suplatast tosilate crystals of the present invention obtained in Examples 1 to 3, and the suplatast tosilate first crystals obtained in Comparative Examples 1 to 3 was measured using a chiral stationary phase column (“Chiralcel OD-H”, 4.6 mm×25 cm, product of Daicel Chemical Industries) with n-hexane ethanol-trifluoroacetic acid-diethylamine (750:250:5:1) as a mobile phase.
The optically active substance ratio of the suplatast tosilate in the mother liquor in each of Examples and Comparative Examples was measured as described above. The ratio in Example 1 to 6 was from 0.99 to 1.01, while it was 0.57 in Comparative Example 1, 0.87 in Comparative Example 2, and 0.42 in Comparative Example 3. Accordingly, the invention crystal can be recovered again from the mother liquor, while the first crystal cannot be recovered from the mother liquor. Such a phenomenon owes to optical enrichment phenomenon typically observed upon formation of the first crystal.

[2] = Heat Stability Test (60° C., 3 months, glass air-tight container); conditions: for Decomposition product (wt. %) formed, Lot 1: Lot 1, p-toluenesulfonate
Procedure: [Test 4] Heat Stability Test
The invention crystals of suplatast tosilate obtained in accordance with the process of Example 1 and commercially available suplatast tosilate first crystals, each 3.6 g, were stored at 60° C. for 3 months in a glass air-tight container and the formation amount and powder X-ray diffraction of a decomposition product ((±)-4-(3-ethoxy-2-hydroxypropoxy) aniline derivative) were measured to investigate heat storage stability.

[3] = Hygroscopicity Test 1 (storage at 25° C., 75% RH, time-dependent weight change); conditions: relative humidity 75%, FIG. 4
Procedure: FIG. 4 is a graph illustrating a water content increase, at 25° C. and relative humidity of 75%, of the invention crystal of suplatast tosilate (Example 1) suplatast tosilate first crystal (commercially available product) and suplatast tosilate second crystal (Comparative Example 4).
[Test 2] Hygroscopicity Test 1
In a dessicator (adjusted to 75% RH) having a saturated aqueous solution of sodium chloride charged therein, 1.0 g of each of the suplatast tosilate crystals of the invention obtained in Example 1, commercially available suplatast tosilate first crystals and the suplatast tosilate second crystals obtained in Comparative Example 4 were stored at 25° C. and a time-dependent weight change was measured.

[4] = Hygroscopicity Test 2 (storage at 40° C., relative humidity 50%, 14 days); conditions: for Change in appearance on storage: p-toluenesulfonate
Procedure: [Test 3] Hygroscopicity Test 2
Each of the suplatast tosilate crystals of the invention obtained in Example 1, and the second crystals obtained in accordance with the process of Comparative Example 4 (each, 0.5 g) were stored at 40° C. and relative humidity of 50% for 14 days, followed by observation of their appearance, powder X-ray diffraction and differential scanning calorimetry (DSC) in order to investigate storage stability.

[5] = 2 months, Lot 2, p-toluenesulfonate
[6] = 2 months, Lot 3, p-toluenesulfonate
[7] = 3 months, Lot 2, p-toluenesulfonate
[8] = 3 months, Lot 3, p-toluenesulfonate

CCOCC(O)COc1ccc(NC(=O)CC[S+](C)C)cc1.Cc1ccc(S(=O)(=O)[O-])cc1 (racemic) [Comparative Example 1, (±)-[2-[4-(3-ethoxy-2-hydroxypropoxy)phenylcarbamoyl]ethyl] dimethylsulfonium p-toluenesulfonate]
Optically active substance ratio ((+)/(−)) [1]: 1.09
Optically active substance ratio of the suplatast tosilate in the mother liquor [1]: 0.57

CCOCC(O)COc1ccc(NC(=O)CC[S+](C)C)cc1.Cc1ccc(S(=O)(=O)[O-])cc1 (racemic) [Comparative Example 2, (±)-[2-[4-(3-ethoxy-2-hydroxypropoxy)phenylcarbamoyl]ethyl] dimethylsulfonium p-toluenesulfonate]
Optically active substance ratio ((+)/(−)) [1]: 0.97
Optically active substance ratio of the suplatast tosilate in the mother liquor [1]: 0.87

CCOCC(O)COc1ccc(NC(=O)CC[S+](C)C)cc1.Cc1ccc(S(=O)(=O)[O-])cc1 (racemic) [Comparative Example 3, (±)-[2-[4-(3-ethoxy-2-hydroxypropoxy)phenylcarbamoyl]ethyl] dimethylsulfonium p-toluenesulfonate]
Optically active substance ratio ((+)/(−)) [1]: 0.94
Optically active substance ratio of the suplatast tosilate in the mother liquor [1]: 0.42

CCOCC(O)COc1ccc(NC(=O)CC[S+](C)C)cc1.Cc1ccc(S(=O)(=O)[O-])cc1 (racemic) [Example 1, (±)-[2-[4-(3-ethoxy-2-hydroxypropoxy)phenylcarbamoyl]ethyl] dimethylsulfonium p-toluenesulfonate]
Optically active substance ratio ((+)/(−)) [1]: 1.00

CCOCC(O)COc1ccc(NC(=O)CC[S+](C)C)cc1.Cc1ccc(S(=O)(=O)[O-])cc1 (racemic) [Example 2, (±)-[2-[4-(3-ethoxy-2-hydroxypropoxy)phenylcarbamoyl]ethyl] dimethylsulfonium p-toluenesulfonate]
Optically active substance ratio ((+)/(−)) [1]: 1.00

CCOCC(O)COc1ccc(NC(=O)CC[S+](C)C)cc1.Cc1ccc(S(=O)(=O)[O-])cc1 (racemic) [Example 3, (±)-[2-[4-(3-ethoxy-2-hydroxypropoxy)phenylcarbamoyl]ethyl] dimethylsulfonium p-toluenesulfonate]
Optically active substance ratio ((+)/(−)) [1]: 1.00

CCOCC(O)COc1ccc(NC(=O)CC[S+](C)C)cc1.Cc1ccc(S(=O)(=O)[O-])cc1 (racemic) [Example 6, (±)-[2-[4-(3-ethoxy-2-hydroxypropoxy)phenylcarbamoyl]ethyl] dimethylsulfonium p-toluenesulfonate]
Optically active substance ratio ((+)/(−)) [1]: around 1.00

CCOCC(O)COc1ccc(NC(=O)CC[S+](C)C)cc1.Cc1ccc(S(=O)(=O)[O-])cc1 (racemic) [First crystal, (±)-[2-[4-(3-ethoxy-2-hydroxypropoxy)phenylcarbamoyl]ethyl] dimethylsulfonium p-toluenesulfonate]
Decomposition product (wt. %) formed, Lot 1 ([2]; 1 month): 0.1 wt. %
Decomposition product (wt. %) formed, Lot 2 ([2]; 1 month, Lot 2): 0.0 wt. %
Decomposition product (wt. %) formed, Lot 3 ([2]; 1 month, Lot 3): 0.0 wt. %
Decomposition product (wt. %) formed, Lot 1 ([2]; 2 months): 1.1 wt. %
Decomposition product (wt. %) formed, Lot 2 [2, 5]: 0.7 wt. %
Decomposition product (wt. %) formed, Lot 3 [2, 6]: 0.5 wt. %
Decomposition product formed after 3-month storage (over the lots) ([2]; 3 months): about 1.7 wt. %
Decomposition product (wt. %) formed, Lot 1 ([2]; 3 months): 2.1 wt. %
Decomposition product (wt. %) formed, Lot 2 [2, 7]: 1.5 wt. %
Decomposition product (wt. %) formed, Lot 3 [2, 8]: 1.4 wt. %

CCOCC(O)COc1ccc(NC(=O)CC[S+](C)C)cc1.Cc1ccc(S(=O)(=O)[O-])cc1 (racemic) [Invention crystal, (±)-[2-[4-(3-ethoxy-2-hydroxypropoxy)phenylcarbamoyl]ethyl] dimethylsulfonium p-toluenesulfonate]
Hygroscopicity (water content increase) [3]: lower hygroscopicity than each of the first crystal and second crystal
Change in powder X-ray diffraction peaks and DSC on storage [4]: almost free from a change in powder X-ray diffraction peaks and in DSC
Change in appearance on storage [4]: almost free from a change in appearance
Decomposition product (wt. %) formed, Lot 1 ([2]; 1 month): 0.0 wt. %
Decomposition product (wt. %) formed, Lot 2 ([2]; 1 month, Lot 2): 0.0 wt. %
Decomposition product (wt. %) formed, Lot 3 ([2]; 1 month, Lot 3): 0.0 wt. %
Decomposition product (wt. %) formed, Lot 1 ([2]; 2 months): 0.0 wt. %
Decomposition product (wt. %) formed, Lot 2 [2, 5]: 0.0 wt. %
Decomposition product (wt. %) formed, Lot 3 [2, 6]: 0.0 wt. %
Decomposition product after 3 months (in words) ([2]; 3 months): no decomposition product appeared
Decomposition product (wt. %) formed, Lot 1 ([2]; 3 months): 0.0 wt. %
Decomposition product (wt. %) formed, Lot 2 [2, 7]: 0.0 wt. %
Decomposition product (wt. %) formed, Lot 3 [2, 8]: 0.0 wt. %

CCOCC(O)COc1ccc(NC(=O)CC[S+](C)C)cc1.Cc1ccc(S(=O)(=O)[O-])cc1 (racemic) [second crystal, (±)-[2-[4-(3-ethoxy-2-hydroxypropoxy)phenylcarbamoyl]ethyl] dimethylsulfonium p-toluenesulfonate]
Change in appearance on storage [4]: showed deliquescence after storage for one week
